Measurements published in patent publication EP4501917A1, “3,4-DIHYDROQUINOXALINE-2-CARBOXIMIDE DERIVATIVE COMPOUND AND PHARMACEUTICAL COMPOSITION COMPRISING SAME FOR PREVENTING OR TREATING CANCER DISEASE” (Daegu-Gyeongbuk Medical Innovation Foundation, priority 2022, dated 2023).

Tests used:
HDAC8 [1] = target: T1, HDAC8 (Homo sapiens, UniProt Q9BY41); assay: HDAC8 inhibitory activity analysis (in vitro), RFU analysis, HDAC Fluorogenic assay kit; type: biochemical; conditions: compound final concentration 10 µM; HDAC substrate 2A 20 µM; positive control (1% DMSO) set to 100, lower = more inhibition
T1 construct: purchased BPS bioscience
T1 sequence (Q9BY41 1-377): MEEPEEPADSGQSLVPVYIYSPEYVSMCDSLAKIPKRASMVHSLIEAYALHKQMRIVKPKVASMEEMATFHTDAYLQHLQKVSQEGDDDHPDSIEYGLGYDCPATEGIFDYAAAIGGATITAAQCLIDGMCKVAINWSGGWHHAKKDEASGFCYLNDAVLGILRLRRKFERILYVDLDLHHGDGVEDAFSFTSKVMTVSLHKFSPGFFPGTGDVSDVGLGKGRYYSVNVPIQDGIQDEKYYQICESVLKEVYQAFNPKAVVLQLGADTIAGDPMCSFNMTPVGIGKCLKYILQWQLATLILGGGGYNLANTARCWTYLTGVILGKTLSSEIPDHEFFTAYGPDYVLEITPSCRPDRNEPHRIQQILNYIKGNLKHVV
Protocol: The compound of the Example was diluted to 1 mM (1% DMSO concentration) using DMSO to obtain a final concentration of 10 µM, and prepared by diluting 1/10 with assay buffer. In a 96-well black round-bottom plate, 5 µL of the diluted compound of the Example, 5 µL of the diluted HDAC substrate 2A, 5 µL of BSA (1 mg/mL), 5 µL of the HDAC8 enzyme diluted to an appropriate concentration, and 30 µL of assay buffer were added, and the enzyme reaction was performed at 37°C for 30 minutes. […] Afterwards, 50 µL of 2X HDAC developer was added to each well. After reacting for 15 minutes at room temperature, the fluorescence values at excitation wavelengths of 350-380 nm and emission wavelengths of 440-460 nm were measured using a microplate reader (Synergy Neo).

HDAC9 = HDAC9 (Homo sapiens, UniProt Q9UKV0); assay: Selective HDAC inhibition, HDAC Fluorogenic assay kit; conditions: read-out: HDAC9 enzyme activity (%)
Protocol: (§1) For analysis, HDAC substrate 3 was diluted in buffer to a concentration of 200 µM and used in HDAC 1, 2, 3, 6, and 10 assays, HDAC substrate 2A was diluted in buffer to a concentration of 200 µM and used in HDAC 4, 7, 9, and 11 assays, HDAC substrate 2A was diluted in buffer to a concentration of 20 µM and used in HDAC 8 assays. For the HDAC 11 assay, a dedicated buffer included in the kit was used separately, and the same buffer was used for the remaining assays. The compound of the Example was diluted to 1 mM (1% DMSO concentration) using DMSO to obtain a final concentration of 10 µM, and prepared by diluting 1/10 with assay buffer. In a 96-well black round-bottom plate, 5 µL of the diluted compound of the Example, 5 µL of the diluted HDAC substrate, 5 µL of BSA (1 mg/ml), 5 µL of the HDAC enzyme diluted to the appropriate concentration, and 30 µL of assay buffer were added, and the enzyme reaction was performed at 37°C for 30 minutes. […] Afterwards, 50 µL of 2X HDAC developer was added to each well. After reacting for 15 minutes at room temperature, the fluorescence values at excitation wavelengths of 350-380 nm and emission wavelengths of 440-460 nm were measured using a microplate reader (Synergy Neo).

HDAC1 = HDAC1 (Homo sapiens, UniProt Q13547); assay: as above; conditions: final concentration 10 µM; HDAC substrate 3 200 µM; positive control (1% DMSO) set to 100
Protocol: as §1

HDAC6 = target: T2, HDAC6 (Homo sapiens, UniProt Q9UBN7); assay: as above; conditions: final concentration 10 µM; HDAC substrate 3 200 µM; positive control (1% DMSO) set to 100
T2 sequence (Q9UBN7 1-1215): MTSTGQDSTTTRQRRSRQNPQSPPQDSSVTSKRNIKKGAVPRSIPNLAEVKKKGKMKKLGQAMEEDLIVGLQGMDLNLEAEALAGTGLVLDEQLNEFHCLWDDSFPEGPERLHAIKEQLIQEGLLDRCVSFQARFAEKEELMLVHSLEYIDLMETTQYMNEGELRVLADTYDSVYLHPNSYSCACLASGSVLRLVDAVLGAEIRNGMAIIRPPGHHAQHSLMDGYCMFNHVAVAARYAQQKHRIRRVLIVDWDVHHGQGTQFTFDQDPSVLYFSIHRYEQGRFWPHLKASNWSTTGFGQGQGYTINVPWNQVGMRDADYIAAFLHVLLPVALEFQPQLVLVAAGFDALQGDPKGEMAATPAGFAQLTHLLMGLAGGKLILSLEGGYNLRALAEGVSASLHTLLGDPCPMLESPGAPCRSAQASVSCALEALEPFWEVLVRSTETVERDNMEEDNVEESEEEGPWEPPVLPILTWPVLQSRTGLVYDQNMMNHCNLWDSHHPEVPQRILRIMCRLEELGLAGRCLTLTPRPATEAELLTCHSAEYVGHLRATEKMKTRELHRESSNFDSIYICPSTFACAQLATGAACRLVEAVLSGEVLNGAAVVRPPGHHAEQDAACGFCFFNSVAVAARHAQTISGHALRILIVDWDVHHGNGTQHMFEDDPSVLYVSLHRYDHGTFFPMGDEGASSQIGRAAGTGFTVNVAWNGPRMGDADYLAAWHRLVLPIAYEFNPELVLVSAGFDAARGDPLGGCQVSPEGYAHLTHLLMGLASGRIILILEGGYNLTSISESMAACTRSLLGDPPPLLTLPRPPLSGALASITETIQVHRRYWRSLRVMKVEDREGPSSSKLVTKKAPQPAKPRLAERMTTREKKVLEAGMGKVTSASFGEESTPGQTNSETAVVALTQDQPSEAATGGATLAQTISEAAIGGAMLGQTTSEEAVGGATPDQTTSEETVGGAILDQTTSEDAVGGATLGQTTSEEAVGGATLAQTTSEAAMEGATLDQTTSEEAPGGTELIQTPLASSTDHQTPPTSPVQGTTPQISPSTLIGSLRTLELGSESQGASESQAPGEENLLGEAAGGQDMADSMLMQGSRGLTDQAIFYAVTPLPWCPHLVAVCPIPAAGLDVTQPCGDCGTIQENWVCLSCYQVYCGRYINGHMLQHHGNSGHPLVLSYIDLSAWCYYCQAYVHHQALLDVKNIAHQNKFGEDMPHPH
Protocol: as §1

HDAC10 = target: T3, HDAC10 (Homo sapiens, UniProt Q969S8); assay: as above; conditions: final concentration 10 µM; HDAC substrate 3 200 µM; positive control (1% DMSO) set to 100
T3 sequence (Q969S8 1-669): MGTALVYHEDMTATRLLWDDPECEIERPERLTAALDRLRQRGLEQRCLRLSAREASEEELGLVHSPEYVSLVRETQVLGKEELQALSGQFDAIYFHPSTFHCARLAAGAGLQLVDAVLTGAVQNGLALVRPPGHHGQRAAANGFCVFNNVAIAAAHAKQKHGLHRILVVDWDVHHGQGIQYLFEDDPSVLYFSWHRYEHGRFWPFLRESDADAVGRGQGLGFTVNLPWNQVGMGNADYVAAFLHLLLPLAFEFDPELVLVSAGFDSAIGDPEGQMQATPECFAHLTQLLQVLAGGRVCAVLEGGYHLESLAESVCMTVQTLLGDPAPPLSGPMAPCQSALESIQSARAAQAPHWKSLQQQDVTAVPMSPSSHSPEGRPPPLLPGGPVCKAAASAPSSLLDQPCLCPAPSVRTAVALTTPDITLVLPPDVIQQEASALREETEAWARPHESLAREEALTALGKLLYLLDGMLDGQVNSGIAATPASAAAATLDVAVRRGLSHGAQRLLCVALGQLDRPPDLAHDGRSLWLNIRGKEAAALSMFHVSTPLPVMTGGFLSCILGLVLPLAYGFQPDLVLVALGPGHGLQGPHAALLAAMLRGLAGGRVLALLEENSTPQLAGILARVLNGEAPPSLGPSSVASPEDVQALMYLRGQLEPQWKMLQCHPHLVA
Protocol: as §1

HDAC8 [2] = target: T1, HDAC8; assay: as above; type: biochemical; conditions: final concentration 10 µM; HDAC substrate 2A 20 µM; positive control (1% DMSO) set to 100; read-out: HDAC8 enzyme activity (%)
Protocol: as §1

HDAC2 = HDAC2 (Homo sapiens, UniProt Q92769); assay: as above; conditions: final concentration 10 µM; HDAC substrate 3 200 µM; positive control (1% DMSO) set to 100
Protocol: as §1

HDAC4 = HDAC4 (Homo sapiens, UniProt P56524); assay: as above; conditions: read-out: HDAC4 enzyme activity (%)
Protocol: as §1

HDAC11 = target: T4, HDAC11 (Homo sapiens, UniProt Q96DB2); assay: as above; conditions: read-out: HDAC11 enzyme activity (%)
T4 sequence (Q96DB2 1-347): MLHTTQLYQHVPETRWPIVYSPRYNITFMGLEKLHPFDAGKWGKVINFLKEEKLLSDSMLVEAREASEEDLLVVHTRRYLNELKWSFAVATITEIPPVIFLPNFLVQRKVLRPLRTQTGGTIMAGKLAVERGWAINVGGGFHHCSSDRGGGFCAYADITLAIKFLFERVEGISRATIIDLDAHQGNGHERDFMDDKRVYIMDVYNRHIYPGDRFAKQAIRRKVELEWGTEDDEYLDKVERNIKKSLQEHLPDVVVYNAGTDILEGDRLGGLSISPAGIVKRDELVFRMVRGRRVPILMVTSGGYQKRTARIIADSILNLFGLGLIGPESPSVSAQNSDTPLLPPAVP
Protocol: as §1

Chain of HDAC1 (Q13547 whole entry): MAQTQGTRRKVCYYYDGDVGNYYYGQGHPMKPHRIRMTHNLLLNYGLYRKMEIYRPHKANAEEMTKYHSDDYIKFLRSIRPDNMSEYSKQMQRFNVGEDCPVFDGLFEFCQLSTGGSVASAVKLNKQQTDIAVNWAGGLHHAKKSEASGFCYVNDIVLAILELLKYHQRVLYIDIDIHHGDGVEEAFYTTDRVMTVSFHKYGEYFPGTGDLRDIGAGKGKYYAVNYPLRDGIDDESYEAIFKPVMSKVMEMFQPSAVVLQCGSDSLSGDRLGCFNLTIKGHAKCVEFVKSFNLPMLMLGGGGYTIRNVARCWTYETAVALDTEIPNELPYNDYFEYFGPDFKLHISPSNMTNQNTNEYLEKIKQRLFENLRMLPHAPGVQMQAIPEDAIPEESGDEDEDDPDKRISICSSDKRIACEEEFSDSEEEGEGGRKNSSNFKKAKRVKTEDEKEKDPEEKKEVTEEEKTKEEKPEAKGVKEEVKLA
Chain of HDAC9 (Q9UKV0 whole entry): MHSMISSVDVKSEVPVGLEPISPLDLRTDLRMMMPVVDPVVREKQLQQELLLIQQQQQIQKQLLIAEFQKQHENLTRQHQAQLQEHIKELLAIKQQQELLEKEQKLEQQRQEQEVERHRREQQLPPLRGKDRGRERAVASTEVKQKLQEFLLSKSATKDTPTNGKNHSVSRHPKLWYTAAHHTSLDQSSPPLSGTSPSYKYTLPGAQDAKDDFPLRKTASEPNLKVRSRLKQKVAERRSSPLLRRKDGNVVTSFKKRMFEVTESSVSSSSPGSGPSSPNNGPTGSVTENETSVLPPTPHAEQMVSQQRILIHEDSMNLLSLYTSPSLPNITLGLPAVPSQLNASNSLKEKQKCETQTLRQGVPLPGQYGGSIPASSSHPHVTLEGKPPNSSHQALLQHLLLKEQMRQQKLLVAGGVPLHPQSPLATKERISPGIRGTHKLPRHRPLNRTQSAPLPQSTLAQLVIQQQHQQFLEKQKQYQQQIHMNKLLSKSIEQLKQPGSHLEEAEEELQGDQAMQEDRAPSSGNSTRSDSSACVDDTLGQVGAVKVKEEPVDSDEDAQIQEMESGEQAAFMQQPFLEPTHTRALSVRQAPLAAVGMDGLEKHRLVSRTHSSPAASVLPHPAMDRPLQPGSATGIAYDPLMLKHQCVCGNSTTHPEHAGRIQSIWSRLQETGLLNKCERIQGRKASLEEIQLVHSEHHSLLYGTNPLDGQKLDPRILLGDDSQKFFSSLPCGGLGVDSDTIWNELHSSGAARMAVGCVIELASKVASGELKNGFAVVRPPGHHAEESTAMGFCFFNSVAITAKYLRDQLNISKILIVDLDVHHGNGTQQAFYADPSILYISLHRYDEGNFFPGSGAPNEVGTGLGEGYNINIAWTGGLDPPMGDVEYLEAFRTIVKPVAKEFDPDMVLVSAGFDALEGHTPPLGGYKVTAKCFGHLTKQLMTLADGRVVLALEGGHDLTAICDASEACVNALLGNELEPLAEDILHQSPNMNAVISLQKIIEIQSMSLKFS
Chain of HDAC4 (P56524 whole entry): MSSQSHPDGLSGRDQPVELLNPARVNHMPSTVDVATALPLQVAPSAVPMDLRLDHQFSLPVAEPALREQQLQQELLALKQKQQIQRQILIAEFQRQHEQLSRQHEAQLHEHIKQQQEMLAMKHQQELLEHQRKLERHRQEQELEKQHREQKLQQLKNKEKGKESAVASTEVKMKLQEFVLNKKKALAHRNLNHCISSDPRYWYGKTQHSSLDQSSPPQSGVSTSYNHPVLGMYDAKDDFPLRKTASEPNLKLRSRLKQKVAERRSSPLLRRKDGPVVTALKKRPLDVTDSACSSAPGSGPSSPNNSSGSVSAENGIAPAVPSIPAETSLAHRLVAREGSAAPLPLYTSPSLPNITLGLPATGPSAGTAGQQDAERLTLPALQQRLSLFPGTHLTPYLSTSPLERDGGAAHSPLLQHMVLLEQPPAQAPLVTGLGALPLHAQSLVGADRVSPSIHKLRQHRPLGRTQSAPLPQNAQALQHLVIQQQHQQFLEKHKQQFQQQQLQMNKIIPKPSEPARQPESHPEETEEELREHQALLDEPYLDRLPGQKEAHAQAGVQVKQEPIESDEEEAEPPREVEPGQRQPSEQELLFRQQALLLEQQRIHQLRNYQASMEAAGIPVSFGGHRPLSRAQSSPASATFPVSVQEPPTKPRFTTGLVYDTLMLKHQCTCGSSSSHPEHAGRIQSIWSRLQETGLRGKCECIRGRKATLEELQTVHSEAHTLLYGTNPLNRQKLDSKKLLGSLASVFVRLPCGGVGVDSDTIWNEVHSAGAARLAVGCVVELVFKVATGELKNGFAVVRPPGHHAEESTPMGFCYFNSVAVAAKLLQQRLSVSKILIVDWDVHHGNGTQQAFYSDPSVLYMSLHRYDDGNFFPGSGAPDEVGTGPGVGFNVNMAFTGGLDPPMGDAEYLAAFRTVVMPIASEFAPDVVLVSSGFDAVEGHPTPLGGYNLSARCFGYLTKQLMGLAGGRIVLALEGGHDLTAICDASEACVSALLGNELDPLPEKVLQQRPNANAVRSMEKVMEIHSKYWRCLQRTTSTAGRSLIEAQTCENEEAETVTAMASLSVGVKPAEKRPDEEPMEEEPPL
Chain of HDAC2 (Q92769 whole entry): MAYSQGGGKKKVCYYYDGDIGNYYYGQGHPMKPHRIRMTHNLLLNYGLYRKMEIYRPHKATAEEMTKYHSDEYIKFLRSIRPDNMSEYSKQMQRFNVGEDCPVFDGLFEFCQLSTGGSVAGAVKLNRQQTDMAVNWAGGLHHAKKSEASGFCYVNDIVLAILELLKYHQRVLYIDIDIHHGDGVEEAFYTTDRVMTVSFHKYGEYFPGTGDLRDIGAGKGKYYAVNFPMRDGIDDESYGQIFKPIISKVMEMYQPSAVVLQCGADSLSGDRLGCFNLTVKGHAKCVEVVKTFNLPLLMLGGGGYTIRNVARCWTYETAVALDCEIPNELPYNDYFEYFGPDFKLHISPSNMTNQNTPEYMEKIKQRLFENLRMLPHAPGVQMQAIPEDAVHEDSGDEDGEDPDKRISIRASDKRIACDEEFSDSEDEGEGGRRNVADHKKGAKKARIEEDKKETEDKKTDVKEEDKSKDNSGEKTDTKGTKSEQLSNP

CC(/C=C/C(=O)NO)=C\[C@@H](C)C(=O)c1ccc(N(C)C)cc1 [TSA, Trichostatin A, reference compound]
RFU (%) (HDAC8 [1]): 13.83% | remaining activity at 10 µM (HDAC9): 21.5% | HDAC1 enzyme activity (%) (HDAC1): 1.22% | HDAC6 enzyme activity (%) (HDAC6): 1.11% | HDAC10 enzyme activity (%) (HDAC10): 1.21% | remaining activity at 10 µM (HDAC8 [2]): 11.1% | HDAC2 enzyme activity (%) (HDAC2): 0.70% | remaining activity at 10 µM (HDAC4): 18.8% | remaining activity at 10 µM (HDAC11): 59.1%
